The subject of assay [1] is genotype 1b NS3/4a protease inhibitor resistant variant D168A transient HCV replicon in Huh-7-derived cells. As to the kind of experiment: Transient-transfected HCV replicon EC50, genotype 1b D168A. Type of assay: cell-based, hepatitis C virus. The note with it: 72 h.
Assay [2] concerns genotype 1a (H77) stable HCV replicon in Huh-7-derived cells. As to the kind of experiment: Stable subgenomic HCV replicon EC50, genotype 1a (Renilla luciferase). Type of assay: cell-based, hepatitis C virus. To be noted: stable replicon genotype 1a, 72 h, read-out: EC50 1A RLUC. Summed up:
(§1)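 Compounds, three-fold diluted, were applied to Huh-7-derived cells harbouring luciferase replicons (genotype 1a H77, 1b Con1, 2a JFH-1, 4a ED43, with strain-specific adaptive mutations). Seventy-two hours later, intracellular replication was gauged by Renilla luciferase activity and EC50 derived by regression.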

Assay [3] deals with genotype 1b (Con1) wild type transient HCV replicon in Huh-7-derived cells. As to the kind of experiment: Transient-transfected HCV replicon EC50, genotype 1b wild type. Type of assay: cell-based, hepatitis C virus. To be noted: transient-transfected replicon genotype 1b wild type, 72 h, read-out: EC50 1B WT.
The subject of assay [4] is genotype 1a NS3/4a protease inhibitor resistant variant R155K transient HCV replicon in Huh-7-derived cells. Nature of the assay: Transient-transfected HCV replicon EC50, genotype 1a R155K. Type of assay: cell-based, hepatitis C virus. The note with it: 72 h.
The subject of assay [5] is genotype 1a (H77) wild type transient HCV replicon in Huh-7-derived cells. As to the kind of experiment: Transient-transfected HCV replicon EC50, genotype 1a wild type. Type of assay: cell-based, hepatitis C virus. The note with it: transient-transfected replicon genotype 1a wild type, 72 h, read-out: EC50 1A WT.
Assay [6] has as its system genotype 1b (Con1) stable HCV replicon in Huh-7-derived cells. As to the kind of experiment: Stable subgenomic HCV replicon EC50, genotype 1b (Renilla luciferase). The class given is cell-based, hepatitis C virus. To be noted: stable replicon genotype 1b, 72 h, read-out: EC50 1B RLUC. Summed up:
as §1

Assay [7] has as its system genotype 2a (JFH-1) stable HCV replicon in Huh-7-derived cells. Nature of the assay: Stable subgenomic HCV replicon EC50, genotype 2a (Renilla luciferase). Type of assay: cell-based, hepatitis C virus. The note with it: stable replicon genotype 2a, 72 h, read-out: EC50 2A RLUC. Summed up: as §1
Assay [8] has as its system genotype 3a (S52) stable HCV replicon in Huh-7-derived cells. Nature of the assay: Stable subgenomic HCV replicon EC50, genotype 3a (Renilla luciferase). The class given is cell-based, hepatitis C virus. The note with it: 72 h, read-out: EC50 3A RLUC.
Assay [9] concerns the target HCV NS3 protease domain genotype 3a (Hepatitis C virus genotype 3a, UniProt Q81258). As to the kind of experiment: Ki determination, NS3 protease genotype 3a (fluorogenic depsipeptide substrate). The note with it: 200 pM enzyme, NS4A peptide. Type of assay: biochemical. From the text: Purified NS3 protease domain (amino acids 1-181) of the genotype 1b and 3a virus were generated as above. The internally quenched fluorogenic depsipeptide substrate Ac-DED(Edans)-EEAbuΨ[COO]ASK(Dabcyl)-NH2 and a synthetic peptide containing the hydrophobic core residues of the NS4A protein cofactor ([…]; NS4A peptide) were obtained from Anaspec, Inc. (San Jose, Calif.). Other chemicals and biochemicals were of reagent grade or better and were purchased from standard suppliers.
Reactions were run at room temperature in buffer consisting of 50 mM HEPES, 40% glycerol, 0.05% Triton X-100, 10 mM DTT, and 10% DMSO. The final assay solutions contained 50 pM NS3 genotype 1 b protease or 200 pM genotype 3a protease, 20 μM NS4A peptide, and 4 μM substrate (genotype 1b) or 2 μM substrate (genotype 3a). Inhibitor concentrations varied from 100 nM to 5 pM in 3-fold dilutions, and no-inhibitor controls were included.
Compound dilutions were made in DMSO at 20× final concentration. Reaction mixtures were prepared in 96-well assay plates. A solution of enzyme and NS4A peptide in assay buffer (25 μL volume with both reagents at 4× final concentration) was mixed with 45 μL assay buffer and 5 μL of either inhibitor or DMSO, and pre-incubated at room temperature for 1 hour. The reaction was started by addition of 25 μL substrate solution at 4× final concentration. Plates were mixed vigorously for 5-10 seconds and reactions were allowed to proceed for 90 minutes, fluorescence was measured every 30 s between 90 and 120 minutes reaction time using a Tecan InfiniTe M1000 or PerkinElmer Envision multimode plate reader with an excitation wavelength of 340 nm and an emission wavelength of 490 nm.
Rates were calculated from the progress curves at steady state, in the time frame of 90-120 minutes after addition of substrate. To determine the Ki, rates were plotted as a function of inhibitor concentration, and the data were fit with equation 1 (Morrison, J. F., Biochimica et Biophysica Acta 1969, 185, 269-286) to calculate Ki^app using GraphPad Prism 5. Active fraction of enzyme was determined by active site titration with known potent inhibitors. Ki was calculated from Ki^app/(1+[[S]/Km]).

Assay [10] concerns genotype 4a (ED43) stable HCV replicon in Huh-7-derived cells. As to the kind of experiment: Stable subgenomic HCV replicon EC50, genotype 4a (Renilla luciferase). The class given is cell-based, hepatitis C virus. The note with it: 72 h, read-out: EC50 4A RLUC. Summed up:
as §1

Where [11] appears, read: transient-transfected replicon genotype 1b D168A resistant variant, read-out: EC50 1B D168A.
Where [12] appears, read: transient-transfected replicon genotype 1a R155K resistant variant, read-out: EC50 1A R155K.
[13] abbreviates: stable replicon genotype 3a, Renilla luciferase.
Where [14] appears, read: stable replicon genotype 4a, Renilla luciferase.

Read-outs that look alike come from different tables or passages of the source.

Chain of HCV NS3 protease domain genotype 3a (Q81258 whole entry, looked up, the tested form may be a part): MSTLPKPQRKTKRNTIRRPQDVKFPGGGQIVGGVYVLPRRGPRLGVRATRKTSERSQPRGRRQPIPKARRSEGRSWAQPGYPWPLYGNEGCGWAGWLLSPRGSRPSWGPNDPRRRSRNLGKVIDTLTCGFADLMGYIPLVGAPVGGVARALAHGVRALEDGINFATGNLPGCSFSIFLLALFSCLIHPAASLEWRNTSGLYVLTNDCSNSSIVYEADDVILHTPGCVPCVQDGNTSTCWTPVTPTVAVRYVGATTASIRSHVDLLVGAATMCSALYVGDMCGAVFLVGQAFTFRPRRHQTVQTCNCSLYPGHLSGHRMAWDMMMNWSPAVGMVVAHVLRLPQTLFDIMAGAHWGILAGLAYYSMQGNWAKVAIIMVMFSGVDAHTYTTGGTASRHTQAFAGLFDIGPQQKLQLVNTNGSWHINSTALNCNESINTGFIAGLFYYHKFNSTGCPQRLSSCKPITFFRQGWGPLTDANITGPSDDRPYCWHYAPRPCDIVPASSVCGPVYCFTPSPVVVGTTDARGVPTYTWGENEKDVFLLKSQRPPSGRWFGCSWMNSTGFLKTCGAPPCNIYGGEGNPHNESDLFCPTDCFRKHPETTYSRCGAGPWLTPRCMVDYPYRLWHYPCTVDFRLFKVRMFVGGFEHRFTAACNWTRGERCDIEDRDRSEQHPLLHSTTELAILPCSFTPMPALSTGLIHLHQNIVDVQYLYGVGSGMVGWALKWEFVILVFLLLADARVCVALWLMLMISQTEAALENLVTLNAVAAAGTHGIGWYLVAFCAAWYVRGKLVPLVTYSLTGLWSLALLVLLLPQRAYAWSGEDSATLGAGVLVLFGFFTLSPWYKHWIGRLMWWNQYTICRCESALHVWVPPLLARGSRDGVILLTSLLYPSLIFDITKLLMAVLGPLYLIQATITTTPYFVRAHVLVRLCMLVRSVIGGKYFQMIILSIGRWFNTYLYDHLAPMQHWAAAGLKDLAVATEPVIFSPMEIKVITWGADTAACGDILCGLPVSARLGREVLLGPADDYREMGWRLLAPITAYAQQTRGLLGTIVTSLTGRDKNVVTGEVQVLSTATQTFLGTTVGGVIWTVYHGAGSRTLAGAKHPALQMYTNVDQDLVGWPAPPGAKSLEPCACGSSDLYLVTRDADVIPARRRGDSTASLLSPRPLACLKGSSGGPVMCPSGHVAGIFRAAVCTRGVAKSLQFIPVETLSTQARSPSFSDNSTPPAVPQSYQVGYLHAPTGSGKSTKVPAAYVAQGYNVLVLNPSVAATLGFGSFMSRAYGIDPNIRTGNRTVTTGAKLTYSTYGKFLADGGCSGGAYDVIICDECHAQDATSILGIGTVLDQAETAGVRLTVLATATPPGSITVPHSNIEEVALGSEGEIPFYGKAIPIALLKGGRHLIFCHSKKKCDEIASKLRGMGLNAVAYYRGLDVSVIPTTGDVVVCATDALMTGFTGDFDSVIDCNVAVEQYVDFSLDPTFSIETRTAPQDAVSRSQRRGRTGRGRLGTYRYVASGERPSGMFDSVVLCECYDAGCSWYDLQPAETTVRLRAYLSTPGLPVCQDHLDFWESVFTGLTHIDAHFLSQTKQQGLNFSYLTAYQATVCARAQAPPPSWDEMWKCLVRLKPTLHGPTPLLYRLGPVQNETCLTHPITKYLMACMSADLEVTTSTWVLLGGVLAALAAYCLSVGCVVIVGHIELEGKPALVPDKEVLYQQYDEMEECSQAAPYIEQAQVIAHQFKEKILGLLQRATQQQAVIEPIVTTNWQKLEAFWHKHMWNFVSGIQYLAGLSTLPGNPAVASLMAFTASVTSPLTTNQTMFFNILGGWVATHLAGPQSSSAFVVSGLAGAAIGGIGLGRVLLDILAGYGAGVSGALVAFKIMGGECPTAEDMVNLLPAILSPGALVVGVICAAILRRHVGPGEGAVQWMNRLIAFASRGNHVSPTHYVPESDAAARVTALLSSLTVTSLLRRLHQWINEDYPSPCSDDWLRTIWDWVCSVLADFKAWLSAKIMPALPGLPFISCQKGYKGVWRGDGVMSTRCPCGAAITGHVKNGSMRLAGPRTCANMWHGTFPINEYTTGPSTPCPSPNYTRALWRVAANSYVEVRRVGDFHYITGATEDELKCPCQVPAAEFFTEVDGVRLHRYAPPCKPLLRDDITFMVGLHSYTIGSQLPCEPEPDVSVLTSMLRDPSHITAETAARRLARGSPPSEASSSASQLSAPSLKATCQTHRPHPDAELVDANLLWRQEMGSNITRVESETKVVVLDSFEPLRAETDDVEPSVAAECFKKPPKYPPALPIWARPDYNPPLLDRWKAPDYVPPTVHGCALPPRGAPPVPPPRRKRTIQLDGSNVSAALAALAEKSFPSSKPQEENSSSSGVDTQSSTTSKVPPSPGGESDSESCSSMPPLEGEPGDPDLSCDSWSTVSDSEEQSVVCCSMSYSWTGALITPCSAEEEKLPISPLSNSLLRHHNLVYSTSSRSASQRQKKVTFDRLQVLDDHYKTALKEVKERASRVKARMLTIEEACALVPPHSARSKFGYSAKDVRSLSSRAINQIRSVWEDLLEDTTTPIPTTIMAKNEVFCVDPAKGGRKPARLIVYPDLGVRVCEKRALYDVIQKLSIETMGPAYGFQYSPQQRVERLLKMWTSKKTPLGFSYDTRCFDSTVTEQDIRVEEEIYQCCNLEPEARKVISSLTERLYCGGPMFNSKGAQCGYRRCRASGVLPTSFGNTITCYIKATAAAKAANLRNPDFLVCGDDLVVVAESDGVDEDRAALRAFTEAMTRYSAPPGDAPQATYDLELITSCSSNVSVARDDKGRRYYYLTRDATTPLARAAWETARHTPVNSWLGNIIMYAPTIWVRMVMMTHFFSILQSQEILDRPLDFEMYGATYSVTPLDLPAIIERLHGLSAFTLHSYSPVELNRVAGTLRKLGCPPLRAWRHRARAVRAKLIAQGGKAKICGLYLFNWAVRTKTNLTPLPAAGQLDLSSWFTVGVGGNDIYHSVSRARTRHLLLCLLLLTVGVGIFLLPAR

With `CC[C@@H]1[C@@H]2CN(C(=O)[C@H](C(C)(C)C)NC(=O)O[C@]3(C(F)(F)F)CCCC3CCCCCc3nc4ccc(OC)cc4nc3O2)[C@@H]1C(=O)N[C@]1(C(=O)NS(=O)(=O)C2(C)CC2)C[C@H]1C(F)F` (stereo partly drawn) [Example 9, (7S,10S,11S,12R)-7-tert-butyl-N-[(1R,2R)-2-(difluoromethyl)-1-{[(1-methylcyclopropyl)sulfonyl]carbamoyl}cyclopropyl]-11-ethyl-16-methoxy-5,8-dioxo-3aR-(trifluoromethyl)-1,2,3,3a,5,6,7,8,11,12,20,21,22,23,24,24a-hexadecahydro-10H-9,12-methanocyclopenta[18,19][1,10,3,6]dioxadiazacyclononadecino[11,12-b]quinoxaline-10-carboxamide], the EC50 in assay [1] (setting [11]) is 360 nM; in assay [2], 17 nM; in assay [3] it was 2.5 nM; in assay [4] (setting [12]), 208 nM; in assay [5] it was 12 nM; in [6], 7.9 nM. Moreover, the concentration for a half-maximal effect (EC50) in [7] amounted to 23 nM; in [8] (setting [13]), 1270 nM; in assay [10] (setting [14]), 11 nM. The compound also showed a Ki in assay [9] of 0.59 nM.
As to `CC[C@@H]1[C@@H]2CN(C(=O)[C@H](C(C)(C)C)NC(=O)O[C@@]3(C(F)(F)F)CCCC3CCCCCc3nc4ccc(OC)cc4nc3O2)[C@@H]1C(=O)N[C@]1(C(=O)NS(=O)(=O)C2(C)CC2)C[C@H]1C(F)F` (stereo partly drawn) [Example 10, (7S,10S,11S,12R)-7-tert-butyl-N-[(1R,2R)-2-(difluoromethyl)-1-{[(1-methylcyclopropyl)sulfonyl]carbamoyl}cyclopropyl]-11-ethyl-16-methoxy-5,8-dioxo-3aS-(trifluoromethyl)-1,2,3,3a,5,6,7,8,11,12,20,21,22,23,24,24a-hexadecahydro-10H-9,12-methanocyclopenta[18,19][1,10,3,6]dioxadiazacyclononadecino[11,12-b]quinoxaline-10-carboxamide], the half-maximal effective concentration (EC50) in [1] (setting [11]) came out at 493 nM; in assay [2], 30 nM; in assay [3] it was 10 nM; in assay [4] (setting [12]) it was 131 nM; in assay [5], 37 nM; in assay [6] it was 22 nM. Further, the values for the EC50 in assay [7], in assay [8] (setting [13]) and in assay [10] (setting [14]) were 49 nM, 978 nM and 26 nM, respectively. In assay [9], this compound came in with an inhibitory constant (Ki) of 0.52 nM.
As for `CC[C@@H]1[C@@H]2CN(C(=O)[C@H](C(C)(C)C)NC(=O)O[C@]3(C(F)(F)F)CCC[C@H]3CCCCCc3nc4ccc(OC)cc4nc3O2)[C@@H]1C(=O)N[C@]1(C(=O)NS(=O)(=O)C2CC2)C[C@H]1C(F)F` [Example 11, (7S,10S,11 S,12R)-7-tert-butyl-N-[(1R,2R)-1-[(cyclopropylsulfonyl)carbamoyl]-2-(difluoromethyl)cyclopropyl]-1-ethyl-16-methoxy-5,8-dioxo-3aR-(trifluoromethyl)-1,2,3,3a,5,6,7,8,11,12,20,21,22,23,24,24a-hexadecahydro-1 OH-9,12-methanocyclopenta[18,19][1,10,3,6]dioxadiazacyclononadecino[11,12-b]quinoxaline-10-carboxamide], the EC50 in assay [1] (setting [11]) worked out at 605 nM; in assay [2], 28 nM; in [3], 9.4 nM; in assay [4] (setting [12]) it was 159 nM; in [5] it was 20 nM; in assay [6], 17 nM. Besides, the EC50 was 34 nM in assay [7], 1160 nM in [8] (setting [13]) and 19 nM in [10] (setting [14]). In [9], this compound registered a Ki of 0.88 nM.
`CC[C@@H]1[C@@H]2CN(C(=O)[C@H](C(C)(C)C)NC(=O)O[C@@]3(C(F)(F)F)CCC[C@H]3CCCCCc3nc4ccc(OC)cc4nc3O2)[C@@H]1C(=O)N[C@]1(C(=O)NS(=O)(=O)C2CC2)C[C@H]1C(F)F` [Example 12, (7S,10S,11S,12R)-7-tert-butyl-N-[(1R,2R)-1-[(cyclopropylsulfonyl)carbamoyl]-2-(difluoromethyl)cyclopropyl]-11-ethyl-16-methoxy-5,8-dioxo-3aS-(trifluoromethyl)-1,2,3,3a,5,6,7,8,11,12,20,21,22,23,24,24a-hexadecahydro-10H-9,12-methanocyclopenta[18,19][1,10,3,6]dioxadiazacyclononadecino[11,12-b]quinoxaline-10-carboxamide]: the EC50 in [1] (setting [11]) was 640 nM; in [2] it was 34 nM; in assay [3], 5.7 nM; in assay [4] (setting [12]), 283 nM; in assay [5], 14 nM; in assay [6] it was 18 nM. For the same compound, the EC50 was determined as 25 nM in [7], 2010 nM in assay [8] (setting [13]) and 21 nM in [10] (setting [14]). This compound came in with a Ki in [9] of 1.2 nM.
As for `COc1ccc2nc3c(nc2c1)O[C@H]1CN(C(=O)[C@H](C(C)(C)C)NC(=O)O[C@@H]2CCC[C@H]2CCCCC3)[C@H](C(=O)N[C@]2(C(=O)NS(=O)(=O)C3(C)CC3)C[C@H]2C(F)F)[C@@H]1C` [Example 27, (3aR,7S10S,1S,12R,24aR)-7-tert-butyl-N-[(1R,2R)-2-(difluoromethyl)-1-{[(1-methylcyclopropyl)sulfonyl]carbamoyl}cyclopropyl]-16-methoxy-11-methyl-5,8-dioxo-1,2,3,3a,5,6,7,8,11,12,20,21,22,23,24,24a-hexadecahydro-10H-9,12-methanocyclopenta[18,19][1,10,3,6]dioxadiazacyclononadecino[11,12-b]quinoxaline-10-carboxamide], the EC50 in assay [1] (Hepatitis C virus, read-out: EC50 1B D168A, transient-transfected replicon genotype 1b D168A resistant variant, 72 h) was found to be 70 nM; in assay [2] (Hepatitis C virus), 6.6 nM; in assay [3] (Hepatitis C virus), 4.3 nM; in [4] (Hepatitis C virus, read-out: EC50 1A R155K, transient-transfected replicon genotype 1a R155K resistant variant, 72 h) it was 20 nM; in [5] (Hepatitis C virus) it was 6 nM; in assay [6] (Hepatitis C virus) it was 5.2 nM. Also, the EC50 in [7] (Hepatitis C virus) came out at 6.7 nM; in assay [8] (Hepatitis C virus), 266 nM; in assay [10] (Hepatitis C virus), 6.1 nM. The inhibition constant (Ki) in [9] was determined as 0.08 nM.
